# Test results taken from patent EP0001978A1, “A derivative of thiazolidine-4-carboxylic acid, method for the preparation and pharmaceutical compositions comprising the compound” (Santen Pharmaceutical Co., Ltd, priority 1977, dated 1979).
# Legend:
# angiotensin II = assay: Contractile response of isolated guinea-pig ileum to angiotensin II; format: cell-based; settings: Cavia porcellus, final concentration 10^-5 M
# Protocol: (§1) Measurement of inhibitory activity of angiotensin I-converting enzyme Preparation of isolated guinea-pig ileum was made and suspended in the organ bath containing 20ml of Tyrode's solution gassed 95% 02 + 5% CO2 at 30°C. The contraction induced by angiotensin I (0.125µg/ml) given at intervals of 10 minutes was recorded on a recticerder (Nihon Koden) for 90 seconds using FD pick up (ST-IT-H, Nihon Koden) .
# (§2) The test compounds were added to the bath 5 minutes before the addition of angiotensin I.
# (§3) The influence of the compounds on the contractile response of isolated guinea-pig ileum to angiotensin II was examined in the same manner as above. Further, augmentation of the contractile response to bradykinin by the test compounds was studied by the above-mentioned method from the fact that kininase II which destroys bradykinin is thought to be identical with angiotensin I-converting enzyme.
# [1] = molecular target: T1, angiotensin I-converting enzyme (Cavia porcellus, UniProt H0UWL7); assay: Bioassay: contractile response of isolated guinea-pig ileum to angiotensin I; format: cell-based; settings: angiotensin I 0.125µg/ml, compound added 5 minutes before; for inhibition at 1 µM: final concentration 10^-6 M
# T1 construct: Preparation of isolated guinea-pig ileum was made and suspended in the organ bath; from tissue; host or cells: isolated guinea-pig ileum
# T1 sequence (H0UWL7 33-1302): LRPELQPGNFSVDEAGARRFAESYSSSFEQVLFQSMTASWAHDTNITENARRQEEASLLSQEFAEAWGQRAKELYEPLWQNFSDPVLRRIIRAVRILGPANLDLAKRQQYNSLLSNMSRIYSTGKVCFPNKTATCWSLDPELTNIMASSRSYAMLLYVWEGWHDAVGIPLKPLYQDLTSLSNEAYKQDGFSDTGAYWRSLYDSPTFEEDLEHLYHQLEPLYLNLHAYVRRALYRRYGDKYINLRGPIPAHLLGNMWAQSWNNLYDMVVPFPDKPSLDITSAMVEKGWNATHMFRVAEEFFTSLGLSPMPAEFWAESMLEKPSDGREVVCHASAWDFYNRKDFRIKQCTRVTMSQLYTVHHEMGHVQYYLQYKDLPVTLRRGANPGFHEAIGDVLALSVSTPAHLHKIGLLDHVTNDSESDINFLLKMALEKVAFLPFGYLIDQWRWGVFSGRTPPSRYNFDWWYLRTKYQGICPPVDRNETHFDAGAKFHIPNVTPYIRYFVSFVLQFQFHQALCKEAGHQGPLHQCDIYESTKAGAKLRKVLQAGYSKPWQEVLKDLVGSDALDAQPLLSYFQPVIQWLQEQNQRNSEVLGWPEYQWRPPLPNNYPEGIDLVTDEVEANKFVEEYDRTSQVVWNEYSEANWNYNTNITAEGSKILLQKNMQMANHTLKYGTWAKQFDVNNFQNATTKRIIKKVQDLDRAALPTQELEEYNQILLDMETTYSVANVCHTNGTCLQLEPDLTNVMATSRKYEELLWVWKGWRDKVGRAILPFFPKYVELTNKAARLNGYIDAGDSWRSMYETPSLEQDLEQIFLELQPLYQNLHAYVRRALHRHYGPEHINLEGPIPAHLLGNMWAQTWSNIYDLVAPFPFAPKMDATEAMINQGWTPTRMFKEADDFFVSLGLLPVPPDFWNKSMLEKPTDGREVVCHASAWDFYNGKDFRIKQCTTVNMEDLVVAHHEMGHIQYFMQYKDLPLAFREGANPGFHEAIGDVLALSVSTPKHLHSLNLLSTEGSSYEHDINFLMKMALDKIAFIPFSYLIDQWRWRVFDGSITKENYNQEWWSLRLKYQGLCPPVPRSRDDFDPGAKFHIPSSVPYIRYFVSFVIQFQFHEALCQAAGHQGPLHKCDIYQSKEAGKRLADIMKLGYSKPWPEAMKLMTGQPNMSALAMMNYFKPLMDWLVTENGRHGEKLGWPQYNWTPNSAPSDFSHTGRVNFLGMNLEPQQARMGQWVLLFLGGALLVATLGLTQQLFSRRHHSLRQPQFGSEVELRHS
# Protocol: In the present study, we adopted the bioassay for contractile response of iselated guinea-pig ileum to angiotensin I.
# as §1, §2
# The inhibitory activity of angiotensin I-converting enzyme was calculated by the following formula: [formula] • A: Contractile intensity of angiotensin I before addition of the compound • B: Contractile intensity of angiotensin I after addition of the compound
# kininase II = molecular target: T2, kininase II (Cavia porcellus, UniProt H0UWL7); assay: Augmentation of contractile response of isolated guinea-pig ileum to bradykinin; format: cell-based
# T2 construct: Preparation of isolated guinea-pig ileum was made and suspended in the organ bath; from tissue; host or cells: isolated guinea-pig ileum
# T2 sequence (H0UWL7 33-1302): T1 sequence (H0UWL7 33-1302)
# Protocol: as §1, §2, §3
# male ddy-SLC strain rats = assay: Acute toxicity test (Miller and Tainter method); format: in vivo; settings: oral, subcutaneous or intravenous; 30% suspension or 30% solution (pH 7.0); result in words
# Protocol: Acute toxicity of the compound of this invention, (4R)-3-[(2S)-3-mercapto-2-methylpropanoyl]-4-thiazolidinecarboxylic acid, is shown in Table 3.
# The male ddy-SLC strain rats (5 weeks of age, weighing […]) were placed in a breeding room of constant temperature and humidity (24+1°C, 55+5%) and fed freely pellet diet (CE-2, Clea Japan Inc.) and water for a week. The rats showing the normal growth were selected for the experiment.
# 30% suspension or 30% solution (pH 7.0) was administered orally, subcutaneously or intravenously and the toxicity was calculated by the Miller and Tainter method.
SMILES,inhibition at 10 µM (angiotensin II),inhibition at 10 µM ([1]; final concentration 10^-5 M),inhibition at 1 µM [1],Augmentation to BK (%) (kininase II; final concentration 10^-7 M),Augmentation to BK (%) (kininase II; final concentration 10^-8 M),inhibition at 0.1 µM ([1]; final concentration 10^-7 M),Augmentation to BK (%) (kininase II; final concentration 10^-9 M),Acute toxicity (male ddy-SLC strain rats)
"C[C@@H](CS)C(=O)N1CSC[C@H]1C(=O)O [Compound B, (4R)-3-[(2R)-3-mercapto-2-methylpropanoyl]-4-thiazolidinecarboxylic acid, reference compound]",0%,59.3%,24.7%,78.3%,16.8%,,,
"C[C@H](CS)C(=O)N1CSC[C@H]1C(=O)O [Compound A, (4R)-3-[(2S)-3-mercapto-2-methylpropanoyl]-4-thiazolidinecarboxylic acid]",0%,,72.6%,125.3%,60.4%,38.1%,22.1%,lower toxicity
